In patent publication US4675390A, “2-deoxypentose derivatives” (Eli Lilly and Company, priority 1984, dated 1987):
≈ marks a conversion by molar mass, not a printed value.

Experiments:
CCRF-CEM cell line = experiment: growth inhibition of human leukemic cells; type: cell-based; conditions: read-out: IC50 (concentration giving 50% growth inhibition)
[1] = system: spontaneously hypertensive rats (SHR); experiment: blood pressure lowering in spontaneously hypertensive rats (tailcuff method); type: in vivo; conditions: 5 mg/kg subcutaneous, 3-5 hours
Text: Certain of the compounds of this invention are also active in lowering the blood pressure of spontaneously hypertensive rats (SHR). For example, β-methyl 2-deoxy-3-phosphocholyl-5-n-hexadecyl-D-ribofuranoside, when administered subcutaneously to SHR at various dose levels, produced the hypotensive effects set forth in Table III below.
*measured by tailcuff method

[2] = system: X-5563, a plasma cell myeloma; experiment: antitumor activity against transplanted X-5563 plasma cell myeloma in mice; type: in vivo; conditions: daily for 10 days with 3 day delay
Text: Compounds according to formula II above are also active against transplanted tumors in mice. Table II which follows gives the results of testing α-methyl 2-deoxy-3-phosphocholyl-5-n-hexadecyl-D-ribofuranoside against X-5563, a plasma cell myeloma. In the table, column 1 gives the dosage levels, column 2 toxic deaths, column 3, the percent tumor growth inhibition and column 4, the dosage schedule or regimen. Ten mice were given each dosage ip and a group of 20 mice used as controls.

CCCCCCCCCCCCCCCCOC[C@H]1OC(O)C[C@@H]1OP(=O)([O-])OCC[N+](C)(C)C (stereo partly drawn) [drawing 19 (R = H(OH), R^1 = OH(H)), 2-deoxy-3-phosphocholyl-5-n-hexadecyl-D-ribose]
IC50 (CCRF-CEM cell line): 6.4 µg/mL (≈ 12.2 µM)

CCCCCCCCCCCCCCCCOC[C@H]1OCC[C@@H]1OP(=O)([O-])OCC[N+](C)(C)C [drawing 19 (R = H, R^1 = H), 1,2-dideoxy-3-phosphocholyl-5-n-hexadecyl-D-ribofuranose]
IC50 (CCRF-CEM cell line): 3.7 µg/mL (≈ 7.29 µM)

CCCCCCCCCCCCCCCCOC[C@H]1O[C@@H](OC)C[C@@H]1OP(=O)([O-])OCC[N+](C)(C)C [drawing 19 (R = H, R^1 = MeO), β-methyl 2-deoxy-3-phosphocholyl-5-n-hexadecyl-D-ribofuranoside]
IC50 (CCRF-CEM cell line): 6.2 µg/mL (≈ 11.5 µM) | Heart Rate [1]: No effect | Blood pressure effect ([1]; tailcuff method): -20 mmHg

CCCCCCCCCCCCCCCCOC[C@H]1O[C@H](OC)C[C@@H]1OP(=O)([O-])OCC[N+](C)(C)C [drawing 19 (R = MeO, R^1 = H), α-methyl 2-deoxy-3-phosphocholyl-5-n-hexadecyl-D-ribofuranoside]
Percent inhibition of Tumor growth ([2]; 25 mg/kg ip): 37% | Toxic deaths ([2]; 25 mg/kg ip): 0/10 | Percent inhibition of Tumor growth ([2]; 50 mg/kg ip): 61% | Toxic deaths ([2]; 50 mg/kg ip): 2/10 | IC50 (CCRF-CEM cell line): 2.3 µg/mL (≈ 4.28 µM)

CCCCCCCCCCCCCCCCO[C@H]1CC(O)O[C@@H]1COP(=O)([O-])OCC[N+](C)(C)C (stereo partly drawn) [drawing 20 (R = H(OH), R^1 = OH(H)), 2-Deoxy-3-n-hexadecyl-5-phosphocholyl-D-ribose]
IC50 (CCRF-CEM cell line): 13.2 µg/mL (≈ 25.2 µM)

CCCCCCCCCCCCCCCCO[C@H]1CCO[C@@H]1COP(=O)([O-])OCC[N+](C)(C)C [drawing 20 (R = H, R^1 = H), 1,2-Dideoxy-3-n-hexadecyl-5-phosphocholyl-D-ribofuranose]
IC50 (CCRF-CEM cell line): 3.4 µg/mL (≈ 6.7 µM)

CCCCCCCCCCCCCCCCO[C@H]1C[C@H](OC)O[C@@H]1COP(=O)([O-])OCC[N+](C)(C)C [drawing 20 (R = H, R^1 = MeO), β-Methyl 2-deoxy-3-n-hexadecyl-5-phosphocholyl-D-ribofuranoside]
IC50 (CCRF-CEM cell line): < 2.1 µg/mL

CCCCCCCCCCCCCCCCO[C@H]1C[C@@H](OC)O[C@@H]1COP(=O)([O-])OCC[N+](C)(C)C [drawing 20 (R = MeO, R^1 = H), Methyl 2-deoxy-3-n-hexadecyl-5-phosphocholyl-D-ribofuranoside]
IC50 (CCRF-CEM cell line): 5.2 µg/mL (≈ 9.67 µM)

CCCCCCCCCCCCCCCCO[C@H]1CC(=O)O[C@@H]1COP(=O)([O-])OCC[N+](C)(C)C [drawing 20 (R, R^1 = Carbonyl), 2-deoxy-3-n-hexadecyl-5-phosphocholyl-D-ribofuran-1-one]
IC50 (CCRF-CEM cell line): 6.2 µg/mL (≈ 11.9 µM)

CCCCCCCCCCCCCCCCOC[C@H]1OCC[C@H]1OP(=O)([O-])OCC[N+](C)(C)C [drawing 21 (R = H, R^1 = H), 1,2-dideoxy-3-phosphocholyl-5-n-hexadecyl-D-xylofuranose]
IC50 (CCRF-CEM cell line): 6.2 µg/mL (≈ 12.2 µM)

CCCCCCCCCCCCCCCCOC[C@H]1O[C@H](OC)C[C@H]1OP(=O)([O-])OCC[N+](C)(C)C [drawing 21 (R = MeO, R^1 = H), α-Methyl 2-deoxy-3-phosphocholyl-5-n-hexadecyl-D-xylofuranoside]
IC50 (CCRF-CEM cell line): 5.3 µg/mL (≈ 9.86 µM)
